Article PMC3274548, “Toward New Therapeutics for Skin and Soft Tissue Infections: Propargyl-Linked Antifolates Are Potent Inhibitors of MRSA and Streptococcus pyogenes” (PLoS ONE, 2012)
≈ marks a conversion by molar mass, not a printed value. Where two headings read alike, the source gives them in different places.

Assays:
[1] = system: MCF-10 cells; assay: Mammalian cell toxicity (Alamar Blue); type: cell-based; conditions: Homo sapiens, MCF10; cytotoxicity, 4 h incubation; read-out: IC50 MCF-10
Description: Adherent cell lines were maintained in Eagle's Minimal Essential Media (Sigma-Aldrich, St. Louis, MO, USA) with 2 mM glutamine and Earle's Balanced Salt Solution (HyClone, Logan, UT, USA) adjusted to contain 1.5 g/L sodium bicarbonate, 0.1 mM non-essential amino acids, 1 mM sodium pyruvate and 10% fetal calf serum. Fetal calf serum used in these assays was lot matched throughout. […] Toxicity assays were conducted between passages 10–20. Target compound toxicity was measured by incubating the test compound with the cells for 4 h, washing the cells and finally treating the cells with Alamar Blue. After 12–24 h, the fluorescence of the reduced dye was measured. Fluorescence intensity as a function of test compound concentration was fit to the Fermi equation, using non-linear least squares regression analysis, to estimate IC50 values.

[2] = system: Streptococcus pyogenes; assay: MIC, broth microdilution with Alamar Blue; type: cell-based; conditions: for Selectivity S. pyogenes: IC50 (MCF10)/MIC (pathogen), both values in µM; for MIC: Streptococcus pyogenes
Description: (§1) Stock solutions of standard antibiotics and test compounds were made at 50 mM in DMSO. […] For susceptibility testing, 10 µL of glycerol stock was suspended in a 10 mL shake flask culture of chemically defined Isosensitest broth (Oxoid) supplemented with 2% w/v glucose. A sample of the shake flask culture was diluted to 1×10^6 cells/mL in media and added to 96-well test plates (100 µL per well) containing test compounds dispensed in DMSO (2 µL) using serial two-fold dilutions. After an incubation period (30°C) determined from the strain specific doubling time, a 0.03% w/v aqueous solution of resazurin (10 µL) was added and the plates were allowed to incubate; each well was then scored for dye reduction.

[3] = system: HepG2 cells; assay: Mammalian cell toxicity (Alamar Blue); type: cell-based; conditions: Homo sapiens, cytotoxicity, 4 h incubation
Description: Fetal calf serum used in these assays was lot matched throughout. All cultures were maintained under a humidified 5% CO2 atmosphere at 37°C, had media refreshed twice weekly and were subcultured by trypsinization and resuspension at a ratio of 1∶5 each week. Toxicity assays were conducted between passages 10–20. Target compound toxicity was measured by incubating the test compound with the cells for 4 h, washing the cells and finally treating the cells with Alamar Blue. After 12–24 h, the fluorescence of the reduced dye was measured. Fluorescence intensity as a function of test compound concentration was fit to the Fermi equation, using non-linear least squares regression analysis, to estimate IC50 values.

[4] = system: TMP-SMZ-resistant MRSA strain; assay: MIC against clinical isolates of MRSA; type: cell-based; conditions: Staphylococcus aureus, clinical isolate, Table 4, read-out: MIC TMP-SMZ^R
[5] = system: hVISA Mu3; assay: MIC against clinical isolates of MRSA; type: cell-based; conditions: Staphylococcus aureus; heteroresistant vancomycin intermediate S. aureus; read-out: MIC hVISA Mu3
[6] = system: HA-MRSA; assay: MIC against clinical isolates of MRSA; type: cell-based; conditions: Staphylococcus aureus, clinical isolate, read-out: MIC HA-MRSA
[7] = system: USA300 CA-MRSA; assay: MIC against clinical isolates of MRSA; type: cell-based, Staphylococcus aureus; conditions: Staphylococcus aureus, clinical isolate, read-out: MIC USA300 CA-MRSA
[8] = system: USA100 HA-MRSA; assay: MIC against clinical isolates of MRSA; type: cell-based; conditions: Staphylococcus aureus, clinical isolate, read-out: MIC USA100 HA-MRSA
[9] = system: VISA Mu50; assay: MIC against clinical isolates of MRSA; type: cell-based; conditions: Staphylococcus aureus, read-out: MIC VISA Mu50
[10] = system: MRSA (S.aureus 13709); assay: MIC, broth microdilution with Alamar Blue; type: cell-based, Staphylococcus aureus; conditions: for Selectivity MRSA: IC50 (MCF10)/MIC (pathogen), both values in µM; for MIC: Staphylococcus aureus, MRSA
Description: as §1

[11] = target: S. pyogenes DHFR (Streptococcus pyogenes, UniProt Q9A091); assay: biochemical; type: biochemical; conditions: IC50 (human)/IC50 (pathogen)
Description: (§2) S. aureus DHFR was cloned, expressed and purified as previously described. Briefly, the DHFR gene was inserted into vector pET41 with a His8 tag for purification. The protein was expressed in E. coli BL21 (DE3) cells. […] The protein was concentrated to ∼5 mg/mL. S. pyogenes DHFR was cloned using PCR from genomic DNA and inserted in vector pET-41.
(§3) Enzyme inhibition assays were performed by monitoring the rate of NADPH oxidation by the DHFR enzyme at an absorbance of 340 nm over five minutes. Assays were performed in the presence of saturating concentrations of NADPH (100 µM) and initiated with dihydrofolate (1 mM). All assays were completed at 25°C in a buffer containing 20 mM TES pH 7.0, 50 mM KCl, 10 mM 2-mercaptoethanol, 0.5 mM EDTA and 1 mg/mL BSA. Inhibition was measured at least three times with inhibitor concentrations near the IC50 value and the average IC50 value is reported with a standard deviation.

[12] = target: T1, S. aureus DHFR (Staphylococcus aureus, UniProt P0A017); assay: biochemical; type: biochemical; conditions: for Selectivity (h/Sa): IC50 (human)/IC50 (pathogen)
T1 construct: the DHFR gene was inserted into vector pET41 with a His8 tag for purification; His8; made in house; host or cells: E. coli BL21 (DE3)
Description: as §2, §3

[13] = target: T2, Human DHFR (Homo sapiens, UniProt P00374); assay: DHFR enzyme inhibition assay (NADPH oxidation, 340 nm); type: biochemical; conditions: human DHFR; average of at least three measurements; read-out: IC50 (nM) Human
T2 sequence (P00374 1-187): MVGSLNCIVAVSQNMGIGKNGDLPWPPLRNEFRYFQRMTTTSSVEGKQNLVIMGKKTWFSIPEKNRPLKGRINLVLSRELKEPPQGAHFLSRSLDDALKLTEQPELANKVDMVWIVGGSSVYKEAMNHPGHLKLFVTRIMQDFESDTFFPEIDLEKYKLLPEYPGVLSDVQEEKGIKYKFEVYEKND
Description: as §3

[14] = 10% FCS, read-out: MIC S. pyogenes +FCS
[15] = 10% FCS, value in parentheses, read-out: MIC S. pyogenes +FCS
[16] = value in parentheses, read-out: MIC S. pyogenes
[17] = 10% fetal calf serum, read-out: MIC MRSA +FCS
[18] = 10% fetal calf serum, value in parentheses, read-out: MIC MRSA +FCS
[19] = value in parentheses, read-out: MIC MRSA
[20] = S. aureus DHFR, average of at least three measurements, read-out: IC50 (nM) Sa

Chain of S. pyogenes DHFR (Q9A091 entry or part of it): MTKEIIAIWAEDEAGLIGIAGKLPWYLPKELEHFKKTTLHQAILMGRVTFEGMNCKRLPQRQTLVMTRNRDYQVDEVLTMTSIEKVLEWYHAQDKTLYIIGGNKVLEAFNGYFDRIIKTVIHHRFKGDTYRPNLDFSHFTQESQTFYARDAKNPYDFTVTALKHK
T1 sequence (P0A017 whole entry): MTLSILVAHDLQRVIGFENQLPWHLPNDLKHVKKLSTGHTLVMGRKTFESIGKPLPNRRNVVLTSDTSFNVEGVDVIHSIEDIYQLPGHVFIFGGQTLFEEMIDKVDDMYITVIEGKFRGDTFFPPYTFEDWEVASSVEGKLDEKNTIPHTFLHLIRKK

Row | Structure (SMILES) | IC50 [1] [nM] | Selectivity S. pyogenes [2] | MIC [2, 14] [µg/mL] | MIC [2, 15] [µM] | MIC [2, 16] [µM] | MIC ([2]; read-out: MIC S. pyogenes) [µg/mL] | IC50 [3] [nM] | MIC [4] [µg/mL] | MIC [5] [µg/mL] | MIC [6] [µg/mL] | MIC ([7]; USA300) [µg/mL] | MIC [7] [µg/mL] | MIC ([8]; USA100) [µg/mL] | MIC ([8]; first USA100 column) [µg/mL] | MIC ([8]; third USA100 column) [µg/mL] | MIC [9] [µg/mL] | Selectivity MRSA [10] | MIC [10, 17] [µg/mL] | MIC [10, 18] [µM] | MIC [10, 19] [µM] | other results
1 | CCc1nc(N)nc(N)c1C#CCc1cc(OC)cc(-c2ccncc2)c1 [Compound 27] | 409000 | 3,272 | 0.09 | 0.25 | 0.125 | 0.04 | 465000 | 0.045 (≈ 0.125 µM) | 0.045 (≈ 0.125 µM) | 0.045 (≈ 0.125 µM) | 0.045 (≈ 0.125 µM) | 0.045 (≈ 0.125 µM) | 0.045 (≈ 0.125 µM) | 2.9 (≈ 8.07 µM) | 0.045 (≈ 0.125 µM) | 0.18 (≈ 0.501 µM) | 3,272 | 0.09 | 0.25 | 0.125 | MIC ([10]; read-out: MIC MRSA): 0.04 µg/mL; Selectivity (h/Sp) [11]: 2; IC50 [12]: 12 ± 2.4 nM; Selectivity (h/Sa) [12]: 5; IC50 [13]: 61 ± 5.7 nM
2 | CCc1nc(N)nc(N)c1C#CCc1cccc(-c2ccncc2)c1 [Compound 28] | 475000 | 3,800 | 0.09 | 0.25 | 0.125 | 0.04 | > 500000 | 0.045 (≈ 0.137 µM) | 0.045 (≈ 0.137 µM) | 0.045 (≈ 0.137 µM) | 0.045 (≈ 0.137 µM) | 0.045 (≈ 0.137 µM) | 0.045 (≈ 0.137 µM) | 2.9 (≈ 8.8 µM) | 0.045 (≈ 0.137 µM) | 0.09 (≈ 0.273 µM) | 1,900 | 0.16 | 0.5 | 0.25 | MIC ([10]; read-out: MIC MRSA): 0.08 µg/mL; Selectivity (h/Sp) [11]: 17; Selectivity (h/Sa) [12]: 26; IC50 [12, 20]: 20 ± 0.5 nM; IC50 [13]: 520 ± 23 nM
3 | CCc1nc(N)nc(N)c1C#CCc1cc(-c2ccncc2)ccc1OC [Compound 26] | 217000 | 1,736 | 0.09 | 0.25 | 0.125 | 0.04 | 199000 | 0.04 (≈ 0.111 µM) | 0.04 (≈ 0.111 µM) | 0.08 (≈ 0.223 µM) | 0.08 (≈ 0.223 µM) | 0.08 (≈ 0.223 µM) | 0.08 (≈ 0.223 µM) | 5.3 (≈ 14.7 µM) | 0.04 (≈ 0.111 µM) | 0.04 (≈ 0.111 µM) | 3,391 | 0.09 | 0.25 | 0.064 | MIC ([10]; read-out: MIC MRSA): 0.02 µg/mL; Selectivity (h/Sp) [11]: 17; Selectivity (h/Sa) [12]: 16; IC50 [12, 20]: 21 ± 1 nM; IC50 [13]: 330 ± 12 nM
